Assay results reported in US20190315775A1, “MODIFIED […] AND PHARMACEUTICAL COMPOSITION HAVING SAME AS ACTIVE INGREDIENT” (KEIO UNIVERSITY, priority 2016, published 2019).

How the values were obtained:
[1] = system: HeLa (human cervical cancer cells); assay: WST-1 proliferation assay (Example 10), HeLa; type: cell-based; conditions: WST-1, 48 hours
Protocol: Cancer cells used herein were KMS34 (human myeloma cells), HeLa (human cervical cancer cells), HCT116 (human colon cancer cells; p53+/+), KATOIII (human stomach cancer cells), MDA-MB-231 (human breast cancer cells), HT-29 (human colon adenocarcinoma cells), PANC-1 (human pancreatic cancer cells), and Li-7 (human liver cancer cells). Proliferation assay of various cancer cells was performed by the WST-1 method (Cook, J A. & Mitchell, J B., Anal. Biochem., 179, 1-7, 1984) as follows. One μ1 each of PEG11(E)-TC11 and PEG11(O)-TC11 prepared in advance at target concentrations was added into each well of a 96-well microplate. Medium was added to the wells at 50 μl per well, and then mixed by tapping lightly the plate. Subsequently, KMS34 was prepared at a concentration of 5×10^5 cells/ml, and cells other than KMS34 were prepared at a concentration of 2×10^5 cells/ml. Cells were seeded at 50 μl per well (2.5×10^4 cells, 1×10^4 cells), and then incubated in a CO2 incubator (37° C., 5% CO2) for 48 hours. […] Subsequently, the plate was shaken with a plate reader for 1 minute, and then absorbance was measured at 450 nm. At this time, absorbance was also measured at 595 nm as a reference wavelength. The net absorbance was obtained by subtracting the absorbance at the reference wavelength from the absorbance at 450 nm.

[2] = Stability in mouse blood after intraperitoneal administration (HPLC); type: in vivo, ICR mice; conditions: for Residual drug within the abdominal cavity: after intraperitoneal administration to mice; for Stability in mouse blood: i.p., equimolar to 20 mg/kg BW TC11, HPLC peaks 0.5-1.5 hours after administration
Protocol: First, PEG11(E)-TC11(A) and PEG11(O)-TC11(B) were examined for stability in mouse blood. To 5-week-old male ICR mice (CLEA Japan, Tokyo, Japan), PEG11(E)-TC11 and PEG11(O)-TC11 were administered intraperitoneally at 59.1 mg/kg BW and 54.6 mg/kg BW, respectively, in such a manner that each molar concentration was equivalent to that of 20 mg/kg BW of TC11. At 0, 0.5, 1, 1.5, 4, 8, 12, and 24 hours later, a tail vein was punctured with a 26G needle for bleeding, and then about 100 μL of blood was collected using a heparinized hematocrit capillary tube (Terumo, Tokyo, Japan). After blood collection, blood was transferred into a 0.5-mL tube, and then subjected to centrifugation at 4° C. and 3,400 G for 15 minutes. Subsequently, the supernatant was collected, and then cryopreserved at −80° C. A quality control serum, Consera (registered trademark) (Nissui pharmaceutical, Tokyo, Japan) was dissolved in 3 mL of distilled water (dH2O) per bottle. After left to stand for 30 minutes, bottles were turned upside-down (mixing by inversion) and then used. Consera (190 μL) was mixed with the collected blood plasma and 10 μL of urine, thereby preparing samples. Moreover, PEG11(E)-TC11 and HOEtO-TC11 were each diluted with dH2O in such a manner that the concentrations were 0, 2, 4, 6, 8, and 10 μM, and then 10 μL of the solution at each concentration and 190 μL of Consera were mixed, thereby preparing a calibration curve sample. Sep-Pak (registered trademark) C18 solid phase extraction cartridge (Waters Associates, Massachusetts, USA) was washed with 2 mL of 100% CH3CN, and then equilibrated with 4 mL of dH2O. Each sample and a sample for preparing a calibration curve were added to the cartridge, and then rinsed with 200 μL of dH2O. Subsequently, the resultant was washed with 2 mL of dH2O, 2 mL of 40% CH3CN, and 250 μL of 100% CH3CN, and then eluted with 1 mL of 100% CH3CN. The eluate was evaporated under vacuum using a centrifugal evaporator CVE-2000 (TOKYO […] CO, LTD, Tokyo, Japan), re-dissolution was performed with 100 μL of 100% EtOH, and then filtration was performed using a chromatodisc having a pore size of 0.45 μm (GL sciences, Tokyo, Japan). The high performance liquid chromatography (High Performance Liquid Chromatography; HPLC) apparatuses used herein are the following apparatuses manufactured by JASCO (Tokyo, Japan).
HPLC analysis was conducted using Inertsil (registered trademark) ODS-3 […]×Φ4.6 mm as a stationary phase, CH3CN:dH2O=50:50 as a mobile phase, a flow rate of 0.70 mL/min, a UV detection wavelength of 267 nm, and an excitation wavelength of 380 nm, a fluorescence wavelength of 530 nm, and an injection amount of 10 μL at a column temperature of 25° C.

[3] = system: high-risk MM cells (KMS34); assay: WST-1 proliferation assay (Example 11), KMS34; type: cell-based, human; conditions: WST-1, 48 hours, FIG. 6
Protocol: Proliferation assay of cancer cells and normal cells was performed using WST-1 as follows. One μ1 each of PEG11(E)-TC11 and TC11 prepared at target concentrations was added to each well of a 96-well microplate. Medium was added to the wells at 50 μl per well, and then mixed by tapping lightly the plate. Next, high-risk MM cells (KMS34) prepared at 5×10^5 cells/ml and bone marrow stromal cell-derived normal cells (WT) prepared at 2×10^5 cells/ml were seeded at 50 μl (2.5×10^4 cells and 1×10^4 cells, respectively) per well, and then incubated in a CO2 incubator (37° C., 5% CO2) for 48 hours. Ten (10) μ1 each of cell proliferation reagent WST-1 (Roche) was added to each well after incubation, and then the resultants were mixed by lightly tapping the plate, followed by 1 hour of reaction in the CO2 incubator. Subsequently, the plate was shaken with a plate reader for 1 minute, and then absorbance was measured at 450 nm. At this time, absorbance was also measured at 595 nm as a reference wavelength. The net absorbance was obtained by subtracting the absorbance at the reference wavelength from the absorbance at 450 nm.

Compound | IC50 [1] | Residual drug within the abdominal cavity [2] | Stability in mouse blood [2] | Proliferation inhibitory activity against high-risk MM cells (KMS34) [3]
COCCOCCOCCOCCOCCOCCOCCOCCOCCOCCOCCOCCC(=O)OCCOc1cc2c(cc1N)C(=O)N(c1c(C(C)C)cccc1C(C)C)C2=O [PEG11(E)-TC11] | 5.4 µM | no residual drug was observed | quickly hydrolyzed with esterase in blood, and converted to HOEtO-TC11 | significant proliferation inhibitory activity
COCCOCCOCCOCCOCCOCCOCCOCCOCCOCCOCCOCCOc1cc2c(cc1N)C(=O)N(c1c(C(C)C)cccc1C(C)C)C2=O [PEG11(O)-TC11] | 18.1 µM | no residual drug was observed | not degraded with esterase in blood | 
CC(C)c1cccc(C(C)C)c1N1C(=O)c2ccc(N)cc2C1=O [TC11, 2-(2,6-di-isopropylphenyl)-5-amino-1H-isoindole-1,3-dione, reference compound] |  |  |  | significant proliferation inhibitory activity
